Reference: ChEMBL document CHEMBL3779781, “New direct inhibitors of InhA with antimycobacterial activity based on a tetrahydropyran scaffold” (Eur J Med Chem, 2016)
pIC50: −log10 of the molar value. ≈ marks a conversion by molar mass, not a printed value.

Assays:
[1] = tested on: Mycobacterium tuberculosis; assay: Antimycobacterial activity against Mycobacterium tuberculosis H37Rv ATCC 25618 after 2 weeks; format: functional; conditions: H37Rv ATCC 25618, 336 h
[2] = Kinetic solubility of compound in DMSO/phosphate buffered saline at pH7.4 by chemiluminescent nitrogen detection method; format: physicochemical; conditions: pH 7.4, read-out: Kinetic_solubility
[3] = Inhibition of Mycobacterium tuberculosis InhA using 2-trans-decenoyl-CoA as substrate by fluorimetric analysis in presence of NADH
[4] = Cytotoxicity against human HepG2 cells by ATP bioluminescence assay; format: cell-based; conditions: read-out: TD50 (the source's name)
[5] = Selectivity index, ratio of TD50 for human HepG2 cells to MIC for Mycobacterium tuberculosis H37Rv ATCC 25618; format: toxicity, cell-based; conditions: read-out: Selectivity Index
[6] = tested on: Mycobacterium tuberculosis; assay: Antimycobacterial activity against Mycobacterium tuberculosis H37Rv ATCC 25618 infected in human THP1 cells assessed as reduction in cell viability after 5 days by luciferase reporter gene assay; format: functional; conditions: H37Rv ATCC 25618, THP-1, 120 h
Streptococcus pneumoniae [7] = assay: Antibacterial activity against Streptococcus pneumoniae 1629 by broth microdilution assay; format: functional
Streptococcus pneumoniae [8] = assay: Antibacterial activity against Streptococcus pneumoniae N1387 by broth microdilution assay; format: functional
Haemophilus influenzae [9] = assay: Antibacterial activity against Haemophilus influenzae H128 with Acr A- genotype by broth microdilution assay; format: functional
[10] = tested on: Mycobacterium tuberculosis; assay: Antimycobacterial activity against Mycobacterium tuberculosis H37Rv by broth microdilution assay; format: functional
Haemophilus influenzae [11] = assay: Antibacterial activity against Haemophilus influenzae H128 by broth microdilution assay; format: functional
Moraxella catarrhalis = assay: Antibacterial activity against Moraxella catarrhalis 1502 by broth microdilution assay; format: functional
Enterococcus faecalis = assay: Antibacterial activity against Enterococcus faecalis 1 by broth microdilution assay; format: functional
[12] = tested on: Mycobacterium tuberculosis; assay: Antimycobacterial activity against Mycobacterium tuberculosis H37Rv; format: functional
Streptococcus pyogenes [13] = assay: Antibacterial activity against Streptococcus pyogenes 1308007P by broth microdilution assay; format: functional
Haemophilus influenzae [14] = assay: Antibacterial activity against Haemophilus influenzae Q1 by broth microdilution assay; format: functional
Staphylococcus aureus [15] = assay: Antibacterial activity against Staphylococcus aureus WCUH29 by broth microdilution assay; format: functional
Streptococcus pyogenes [16] = assay: Antibacterial activity against Streptococcus pyogenes 1307006P by broth microdilution assay; format: functional
Staphylococcus aureus [17] = assay: Antibacterial activity against Staphylococcus aureus Oxford by broth microdilution assay; format: functional
Staphylococcus aureus [18] = assay: Antibacterial activity against Staphylococcus aureus WCUH29 fmt by broth microdilution assay; format: functional
Enterococcus faecium = assay: Antibacterial activity against Enterococcus faecium X7501 by broth microdilution assay; format: functional
[19] = target: Voltage-gated inwardly rectifying potassium channel KCNH2 (Homo sapiens, UniProt Q12809); assay: Inhibition of human ERG by QPatch assay
Voltage-gated inwardly rectifying potassium channel KCNH2, sequence (Q12809 whole entry): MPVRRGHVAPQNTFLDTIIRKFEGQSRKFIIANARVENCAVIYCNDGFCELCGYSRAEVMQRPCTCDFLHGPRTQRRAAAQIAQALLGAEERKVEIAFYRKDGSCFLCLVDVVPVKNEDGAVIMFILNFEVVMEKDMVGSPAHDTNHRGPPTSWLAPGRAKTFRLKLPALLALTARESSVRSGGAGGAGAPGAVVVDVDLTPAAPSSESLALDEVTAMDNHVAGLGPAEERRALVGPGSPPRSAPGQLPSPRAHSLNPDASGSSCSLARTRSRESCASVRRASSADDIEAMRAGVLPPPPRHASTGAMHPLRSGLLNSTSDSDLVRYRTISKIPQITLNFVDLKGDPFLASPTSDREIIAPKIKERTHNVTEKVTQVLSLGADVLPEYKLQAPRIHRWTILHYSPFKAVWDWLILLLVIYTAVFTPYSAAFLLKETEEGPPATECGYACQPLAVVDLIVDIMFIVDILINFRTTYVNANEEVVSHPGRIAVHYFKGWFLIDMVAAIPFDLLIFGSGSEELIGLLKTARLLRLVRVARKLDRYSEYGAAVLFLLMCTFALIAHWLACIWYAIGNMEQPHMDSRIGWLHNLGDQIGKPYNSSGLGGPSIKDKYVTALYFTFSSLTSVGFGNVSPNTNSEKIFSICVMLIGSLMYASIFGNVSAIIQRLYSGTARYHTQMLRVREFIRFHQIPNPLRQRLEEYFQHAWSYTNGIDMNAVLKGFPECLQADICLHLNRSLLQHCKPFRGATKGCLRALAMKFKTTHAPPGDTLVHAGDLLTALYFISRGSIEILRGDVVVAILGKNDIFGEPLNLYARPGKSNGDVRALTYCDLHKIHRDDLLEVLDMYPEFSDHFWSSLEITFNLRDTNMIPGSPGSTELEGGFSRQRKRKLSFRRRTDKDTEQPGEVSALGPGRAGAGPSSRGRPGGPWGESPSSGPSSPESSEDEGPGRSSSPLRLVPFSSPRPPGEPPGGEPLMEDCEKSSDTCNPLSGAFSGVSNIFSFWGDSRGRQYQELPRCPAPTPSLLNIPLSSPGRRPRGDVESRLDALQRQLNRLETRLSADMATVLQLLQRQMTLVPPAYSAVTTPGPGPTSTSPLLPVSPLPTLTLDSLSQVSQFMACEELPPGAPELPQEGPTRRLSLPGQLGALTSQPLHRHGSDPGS

Escherichia coli = assay: Antibacterial activity against Escherichia coli 3 by broth microdilution assay; format: functional
Streptococcus pneumoniae [20] = assay: Antibacterial activity against Streptococcus pneumoniae ERY2 by broth microdilution assay; format: functional

Row | Compound | MIC [1] [µM] | solubility kinetic [2] [µM] | pIC50 [3] | CC50 [4] [µM] | also measured
1 | O=C(NCC1(c2nc(-c3ccccc3)cs2)CCOCC1)c1ccc(Nc2ccccn2)cc1 | > 80 | 12 (≈ 5.65 µg/mL) | < 5.00 | 63.1 | 
2 | O=C(NCC1(c2nc(-c3ccccc3)cs2)CCOCC1)c1ccc(Nc2nc3ccccc3s2)cc1 | > 125 | 4 (≈ 2.11 µg/mL) | < 5.00 | 12.6 | 
3 | Cn1c(Nc2ccc(C(=O)NCC3(c4nc(-c5ccccc5)cs4)CCOCC3)cc2)nc2ccccc21 | 94 (≈ 49.2 µg/mL) | 10 (≈ 5.24 µg/mL) | < 5.00 | 20 | 
4 | O=C(NCC1(c2nc(-c3ccccc3)cs2)CCOCC1)c1ccc(-c2cnco2)cc1 | 125 (≈ 55.7 µg/mL) | 71 (≈ 31.6 µg/mL) | < 6.00 | 79.4 | 
5 | Cc1cc(C)n(Cc2ccc(C(=O)NCC3(c4ccc(-c5ccccc5)cc4)CCOCC3)cc2)n1 | 16 (≈ 7.67 µg/mL) | 77 (≈ 36.9 µg/mL) | 7.54 | 79.4 | selectivity ratio [5]: 5
6 | Cc1cc(C)n(Cc2ccc(C(=O)NCC3(c4nc(-c5ccccc5)cs4)CCOCC3)cc2)n1 | 11.7 (≈ 5.69 µg/mL) | 115 (≈ 56 µg/mL) | 7.70 | 100 | IC90 [6]: 3.98 µM; MIC80 (Streptococcus pneumoniae [7]): > 64 mg/L; MIC80 (Streptococcus pneumoniae [8]): > 64 mg/L; MIC80 (Haemophilus influenzae [9]): > 64 mg/L; MIC80 [10]: 5.7 mg/L (≈ 11.7 µM); MIC80 (Haemophilus influenzae [11]): > 64 mg/L; MIC80 (Moraxella catarrhalis): 32 mg/L (≈ 65.8 µM); MIC80 (Enterococcus faecalis): > 64 mg/L; MIC [12]: 7.8 µM; selectivity ratio [5]: 8.5; MIC80 (Streptococcus pyogenes [13]): > 64 mg/L; MIC80 (Haemophilus influenzae [14]): > 64 mg/L; MIC80 (Staphylococcus aureus [15]): > 64 mg/L; MIC80 (Streptococcus pyogenes [16]): > 64 mg/L; MIC80 (Staphylococcus aureus [17]): > 64 mg/L; MIC80 (Staphylococcus aureus [18]): > 64 mg/L; MIC80 (Enterococcus faecium): > 64 mg/L; pIC50 [19]: 4.35; MIC80 (Escherichia coli): > 64 mg/L; MIC80 (Streptococcus pneumoniae [20]): > 64 mg/L
7 | Cc1cc(C)n(-c2ccc(C(=O)NCC3(c4nc(-c5ccccc5)cs4)CCOCC3)cc2)n1 | 80 (≈ 37.8 µg/mL) | 33 (≈ 15.6 µg/mL) | < 4.00 | 87.1 | 
8 | COc1ccccc1-c1csc(C2(CNC(=O)c3ccc(Cn4nc(C)cc4C)cc3)CCOCC2)n1 | 5 (≈ 2.58 µg/mL) | 78 (≈ 40.3 µg/mL) | 7.44 | 50.1 | selectivity ratio [5]: 10
9 | Cc1cc(C)n(Cc2ccc(C(=O)NCC3(c4ccccn4)CCOCC3)cc2)n1 | > 125 | ≥ 445 | < 5.00 | > 100 | 
10 | Cc1cc(C)n(Cc2ccc(C(=O)NCC3(c4ccc5c(c4)OCO5)CCOCC3)cc2)n1 | 125 (≈ 55.9 µg/mL) | ≥ 478 | 5.10 | > 100 | 
11 | Cc1cnc(Nc2ccc(C(=O)NCC3(c4nc(-c5ccccc5)cs4)CCOCC3)cc2)s1 | > 80 | < 1 | < 5.00 | > 100 | 
12 | COc1cccc(-c2csc(C3(CNC(=O)c4ccc(Cn5nc(C)cc5C)cc4)CCOCC3)n2)c1 | 20 (≈ 10.3 µg/mL) | 72 (≈ 37.2 µg/mL) | 6.49 | 50.1 | 
13 | COc1ccc(C2(CNC(=O)c3ccc(Cn4nc(C)cc4C)cc3)CCOCC2)cc1 | > 125 | ≥ 458 | 5.20 | > 100 | 
14 | NNC(=O)c1ccncc1 [ISONIAZID] |  |  |  |  | MIC [12]: 0.5 mg/L
15 | O=C(NCC1(c2nc(-c3ccccc3)cs2)CCOCC1)c1ccc(Nc2nncs2)cc1 | > 125 | 29 (≈ 13.9 µg/mL) | < 5.00 | 63.1 | 
16 | O=C(NCC1(c2nc(-c3ccccc3)cs2)CCOCC1)c1ccc(CN2CCCCC2)cc1 | > 125 | ≥ 396 | < 6.00 | 79.4 | 
17 | O=C(NCC1(c2nc(-c3ccccc3)cs2)CCOCC1)c1ccc(-n2ccnc2)cc1 | > 125 | 193 (≈ 85.8 µg/mL) | < 6.00 | > 100 | 
18 | O=C(NCC1(c2nc(-c3ccccc3)cs2)CCOCC1)c1ccc(N2CCOCC2)cc1 | > 125 | 138 (≈ 64 µg/mL) | < 6.00 | > 100 | 
19 | Cn1ccc(Nc2ccc(C(=O)NCC3(c4nc(-c5ccccc5)cs4)CCOCC3)cc2)n1 | > 125 | 48 (≈ 22.7 µg/mL) | 5.25 | 79.4 | 
20 | O=C(NCC1(c2nc(-c3ccccc3)cs2)CCOCC1)c1ccc(-n2cncn2)cc1 | 125 (≈ 55.7 µg/mL) | 191 (≈ 85.1 µg/mL) | < 5.00 | > 100 | 
